The record followed here is patent US8324390B2, “Tetrazole-substituted anthranilamides as pesticides” (Bayer CropScience AG, priority 2008, dated 2012).

Structures are written as SMILES. Like-named read-outs stand apart in the source and are kept apart here. Bounds are passed on as bounds.

Data set [1] can be described thus: log P determination by HPLC (EEC Directive 79/831 Annex V.A8). The format is physicochemical. As to the method: The measurements were carried out using an Agilent 1100 LC system with a 50*4.6 Zorbax Eclipse C18 1.8 μm column (oven temperature 55° C., flow rate 2.0 ml/min).
The following mobile phases were used:
Mobile phase A: acetonitrile+1000 μl of formic acid/l
Mobile phase B: Millipore water+900 μl of formic acid/l

Data set [2] has as its system caterpillars of the armyworm (Spodoptera frugiperda). Description: Spodoptera frugiperda test (SPODFR spray treatment). The class given is in vivo. The conditions noted are these: Spodoptera frugiperda, foliar, read-out: effect in % (caterpillars killed). From the text:
(§1) Solvent: 78.0 parts by weight of acetone

In data set [3] the test system is green peach aphid (Myzus persicae). The data set is described as follows: Myzus test (MYZUPE spray treatment). The class given is in vivo. The settings on record: for pest or weed control at 100 g/ha: Myzus persicae, in Brassica rapa, foliar, read-out: effect in % (aphids killed); for Kill in %/7 days: 100 g/ha.
Source text: Solvent: 78 parts by weight of acetone
as §1

For data set [4], the system named is larvae of the mustard beetle (Phaedon cochleariae). Description: Phaedon test (PHAECO spray treatment). The settings on record: Phaedon cochleariae, in Brassica rapa, foliar, read-out: effect in % (beetle larvae killed).
Setting [5] is: reversed-phase HPLC, Zorbax Eclipse C18 column, by HPLC according to EEC Directive 79/831 Annex V.A8, read-out: log P.
Where [6] appears, read: application rate 100 g/ha, maize leaf discs.

For the compound `Cc1cc(C)c(NC(=O)c2cc(Cn3nnc(C(F)(F)F)n3)nn2-c2ncccc2Cl)c(C(N)=O)c1` [Example 80], the chromatographic logP in data set [1] (log P) stood at 2.62. Further, the pest or weed control at 100 g/ha in data set [2] (in Zea mays) and in data set [3] was at least 80% each time.
As for `Cc1cc(C)c(NC(=O)c2cc(Cn3nnnc3C(F)(F)F)nn2-c2ncccc2Cl)c(C(=O)NC(C)C)c1` [Example 179], in data set [1] (log P), the chromatographic logP stood at 2.94. In addition, the pest or weed control at 100 g/ha in data set [2] (in Zea mays) and in data set [3] was at least 80% in each case.
As for `CNC(=O)c1cc(Cl)cc(C)c1NC(=O)c1cc(Cn2nnnc2-c2ccc(C(F)(F)F)cc2)nn1-c1ncccc1Cl` [drawing 606], in data set [3], the “Kill in %/7 days” value is 80%.
Same read-out and setting: the same measure for `CNC(=O)c1cc(Cl)cc(C)c1NC(=O)c1cc(Cn2nnnc2C(F)(F)F)nn1-c1ncccc1Cl` [drawing 605]: 100%.
Regarding `Cc1cc(I)cc(C(=O)NC(C)C2CC2)c1NC(=O)c1cc(Cn2nnc(C(F)F)n2)nn1-c1ncccc1Cl` (centres unmarked) [Example 274], the chromatographic logP in data set [1] (log P) was 3.52. The pest or weed control at 100 g/ha in data set [2] (in Zea mays) and in data set [3] was at least 80% in each case.
On to `CSC[C@H](C)NC(=O)c1cc(C#N)cc(C)c1NC(=O)c1cc(Cn2nnc(C(F)(F)F)n2)nn1-c1ncccc1Cl` [Example 22], for which, in data set [1], the log P (in general, a log measure of how a compound divides between an organic and an aqueous phase) is 3.27. The pest or weed control at 100 g/ha in data set [3] was at least 80%.
The compound `Cc1cc(F)cc(C(=O)NC(C)C)c1NC(=O)c1cc(Cn2nnc(C(F)(F)C(F)(F)F)n2)nn1-c1ncccc1Cl` [Example 149] had a chromatographic logP in data set [1] (log P) of 3.59. In addition, the pest or weed control at 100 g/ha in data set [2] (in Zea mays) and in data set [4] was at least 80% in each case.
`Cc1cc(Cl)cc(C(=O)NCC#N)c1NC(=O)c1cc(Cn2nnc(C(F)(F)F)n2)nn1-c1ncccc1Br` [Example 325]: the chromatographic logP in data set [1] (setting [5]) amounted to 2.72. Moreover, the pest or weed control at 100 g/ha in data set [2] (setting [6]) and in data set [4] was at least 80% throughout.
For the compound `Cc1cc(C#N)cc(C(=O)NC(C#N)C2CC2)c1NC(=O)c1cc(Cn2nnc(C(F)(F)F)n2)nn1-c1ncccc1Cl` (centres unmarked) [Example 321], the chromatographic logP in data set [1] (log P) was determined as 3.05. Further, the pest or weed control at 100 g/ha in data set [2] (in Zea mays) and in data set [4] was at least 80% throughout.
In data set [1] (log P), `Cc1cc(Cl)cc(C(=O)NC2CC2)c1NC(=O)c1cc(Cn2nnc(C(F)(F)C(F)(F)F)n2)nn1-c1ncccc1Cl` [Example 127] gave a chromatographic logP of 3.7. In addition, the pest or weed control at 100 g/ha in data set [2] (in Zea mays) and in data set [4] was at least 80% throughout.
Regarding `Cc1cc(Br)cc(C(=O)NC(C)(C)C)c1NC(=O)c1cc(Cn2nnc(C(F)(F)F)n2)nn1-c1ncccc1C(F)(F)F` [Example 245], in data set [1] (setting [5]), the chromatographic logP was 4.13. The pest or weed control at 100 g/ha in data set [2] (setting [6]) and in data set [4] was at least 80% throughout.
For `Cc1cc(I)cc(C(=O)NC(C)C2CC2)c1NC(=O)c1cc(Cn2nnc(C(F)(F)F)n2)nn1-c1ncccc1Cl` (centres unmarked) [Example 68], the chromatographic logP in data set [1] (log P) was 4.01. The pest or weed control at 100 g/ha in data set [2] (in Zea mays) and in data set [4] was at least 80% each time.
For the compound `Cc1cc(Br)cc(C(=O)NCC#N)c1NC(=O)c1cc(Cn2nnc(C(F)(F)F)n2)nn1-c1ncccc1C(F)(F)F` [Example 248], the chromatographic logP in data set [1] (setting [5]) was 3.21. The pest or weed control at 100 g/ha in data set [2] (setting [6]) and in data set [4] was at least 80% throughout.
In turn, `Cc1cc(I)cc(C(=O)NCC#N)c1NC(=O)c1cc(Cn2nnc(C(F)(C(F)(F)F)C(F)(F)F)n2)nn1-c1ncccc1Cl` [Example 384] yielded a chromatographic logP in data set [1] (log P) of 3.82. Moreover, the pest or weed control at 100 g/ha in data set [2] (in Zea mays) and in data set [4] was at least 80% throughout.
In data set [1] (log P), `Cc1cc(C#N)cc(C(=O)NC2CCCC2)c1NC(=O)c1cc(Cn2nnc(C(F)(F)F)n2)nn1-c1ncccc1Cl` [Example 399] yielded a chromatographic logP of 3.37. In addition, the pest or weed control at 100 g/ha in data set [2] (in Zea mays) and in data set [4] was at least 80% in each case.
Regarding `Cc1cc(Cl)cc(C(=O)NCC#N)c1NC(=O)c1cc(Cn2nnc(C(F)F)n2)nn1-c1ncccc1Cl` [Example 261], the chromatographic logP in data set [1] (log P) came to 2.5. Also, the pest or weed control at 100 g/ha in data set [2] (in Zea mays) and in data set [4] was at least 80% throughout.
On to `Cc1cc(Cl)cc(C(=O)NC(C)C)c1NC(=O)c1cc(Cn2nnc(C(F)(F)C(F)(F)F)n2)nn1-c1ncccc1Cl` [drawing 603], for which the “Kill in %/7 days” value in data set [3] is reported as 70%.
`Cc1cc(F)cc(C(=O)NC(C)C)c1NC(=O)c1cc(Cn2nnc(C(F)(F)F)n2)nn1-c1ncccc1Cl` [Example 40] came in with a chromatographic logP in data set [1] (log P) of 3.11. The pest or weed control at 100 g/ha in data set [2] (in Zea mays) and in data set [4] was at least 80% in each case.
On to `CC(C)(C)NC(=O)c1cc(Cl)cc(Cl)c1NC(=O)c1cc(Cn2nnnc2C(F)(F)C(F)(F)F)nn1-c1ncccc1Cl` [Example 206], for which, in data set [1] (log P), the chromatographic logP stood at 3.88. For the same compound, the pest or weed control at 100 g/ha in data set [2] (in Zea mays) and in data set [4] was at least 80% throughout.
`Cc1cc(I)cc(C(=O)NC(C)C)c1NC(=O)c1cc(Cn2nnc(C(F)(F)C(F)(F)F)n2)nn1-c1ncccc1Cl` [Example 142] registered a chromatographic logP in data set [1] (log P) of 4.19. In addition, the pest or weed control at 100 g/ha in data set [2] (in Zea mays) and in data set [4] was at least 80% in each case.
In turn, `CC(NC(=O)c1cc(Cl)cc(Cl)c1NC(=O)c1cc(Cn2nnc(C(F)(F)F)n2)nn1-c1ncccc1Cl)C1CC1` (centres unmarked) [Example 56] yielded a chromatographic logP in data set [1] (log P) of 3.71. Further, the pest or weed control at 100 g/ha in data set [2] (in Zea mays) and in data set [4] was at least 80% each time.
`Cc1cc(Cl)cc(C(=O)NC2CCC2)c1NC(=O)c1cc(Cn2nnc(C(F)(F)F)n2)nn1-c1ncccc1Cl` [Example 49] displayed a chromatographic logP in data set [1] (log P) of 3.6. In addition, the pest or weed control at 100 g/ha in data set [2] (in Zea mays) and in data set [4] was at least 80% each time.
As for `CNC(=O)c1cc(Cl)cc(C)c1NC(=O)c1cc(Cn2nnc(C(F)(F)F)n2)nn1-c1ccc(Cl)cc1Cl` [Example 239], in data set [1] (setting [5]), the chromatographic logP amounted to 3.97. The pest or weed control at 100 g/ha in data set [2] (setting [6]) and in data set [4] was at least 80% in each case.
Regarding `O=C(NCC(F)F)c1cc(Cl)cc(Cl)c1NC(=O)c1cc(Cn2nnc(C(F)(C(F)(F)F)C(F)(F)F)n2)nn1-c1ncccc1Cl` [Example 396], the chromatographic logP in data set [1] (setting [5]) was 3.89. Moreover, the pest or weed control at 100 g/ha in data set [2] (setting [6]) and in data set [4] was at least 80% throughout.
In data set [1] (log P), `C=CCNC(=O)c1cc(Cl)cc(C)c1NC(=O)c1cc(Cn2nnc(C(F)(F)F)n2)nn1-c1ncccc1Cl` [Example 319] displayed a chromatographic logP of 3.34. Besides, the pest or weed control at 100 g/ha in data set [2] (in Zea mays) and in data set [4] was at least 80% throughout.
In data set [1] (log P), `Cc1cc(Br)cc(C(=O)NCC2CC2)c1NC(=O)c1cc(Cn2nnc(C(F)(F)F)n2)nn1-c1ncccc1Cl` [Example 47] yielded a chromatographic logP of 3.88. Besides, the pest or weed control at 100 g/ha in data set [2] (in Zea mays) and in data set [4] was at least 80% in each case.
Take `CC(NC(=O)c1cc(Cl)cc(Cl)c1NC(=O)c1cc(Cn2nnc(C(F)(C(F)(F)F)C(F)(F)F)n2)nn1-c1ncccc1Cl)C1CC1` (centres unmarked) [Example 387]: in data set [1] (setting [5]), the chromatographic logP was 4.42. In addition, the pest or weed control at 100 g/ha in data set [2] (setting [6]) and in data set [4] was at least 80% throughout.
With `CCNC(=O)c1cc(Cl)cc(C)c1NC(=O)c1cc(Cn2nnc(C(F)(F)F)n2)nn1-c1ncccc1C(F)(F)F` [Example 237], the chromatographic logP in data set [1] (setting [5]) worked out at 3.43. Besides, the pest or weed control at 100 g/ha in data set [2] (setting [6]) and in data set [4] was at least 80% in each case.
Take `Cc1cc(C#N)cc(C(=O)NCC(F)F)c1NC(=O)c1cc(Cn2nnnc2C(F)(F)F)nn1-c1ncccc1Cl` [Example 207]: the chromatographic logP in data set [1] (log P) amounted to 2.57. For the same compound, the pest or weed control at 100 g/ha in data set [2] (in Zea mays) and in data set [4] was at least 80% throughout.
For the compound `Cc1cc(Br)cc(C(N)=O)c1NC(=O)c1cc(Cn2nnc(C(F)(F)F)n2)nn1-c1ncccc1C(F)(F)F` [Example 251], in data set [1] (setting [5]), the chromatographic logP was found to be 3.04. Besides, the pest or weed control at 100 g/ha in data set [2] (setting [6]) and in data set [4] was at least 80% in each case.
Compound `CCNC(=O)c1cc(Cl)cc(Cl)c1NC(=O)c1cc(Cn2nnc(C(F)(F)F)n2)nn1-c1ncccc1Cl` [Example 58] showed a chromatographic logP in data set [1] (log P) of 3.17. Besides, the pest or weed control at 100 g/ha in data set [2] (in Zea mays) and in data set [4] was at least 80% each time.
Consider `Cc1cc(I)cc(C(N)=O)c1NC(=O)c1cc(Cn2nnc(C(F)(F)F)n2)nn1-c1ncccc1C(F)(F)F` [Example 250], for which the chromatographic logP in data set [1] (setting [5]) came out at 3.16. Further, the pest or weed control at 100 g/ha in data set [2] (setting [6]) and in data set [4] was at least 80% in each case.
As for `CNC(=O)c1cc(Cl)cc(C)c1NC(=O)c1cc(Cn2nnc(C(F)(F)F)n2)nn1-c1ccccc1F` [Example 311], the chromatographic logP in data set [1] (setting [5]) was 3.32. Further, the pest or weed control at 100 g/ha in data set [2] (setting [6]) and in data set [4] was at least 80% throughout.
As to `CCNC(=O)c1cc(I)cc(C)c1NC(=O)c1cc(Cn2nnc(C(F)(C(F)(F)F)C(F)(F)F)n2)nn1-c1ncccc1Cl` [Example 380], the chromatographic logP in data set [1] (log P) came out at 4.2. Moreover, the pest or weed control at 100 g/ha in data set [2] (in Zea mays) and in data set [4] was at least 80% in each case.
As for `CNC(=O)c1cc(Cl)cc(C)c1NC(=O)c1cc(Cn2nnc(C(F)(F)F)n2)nn1-c1ccccc1` [Example 404], the chromatographic logP in data set [1] (reversed-phase HPLC, Zorbax Eclipse C18 column, determined by HPLC according to EEC Directive 79/831 Annex V.A8, read-out: log P) is 3.19. In addition, the pest or weed control at 100 g/ha in data set [2] (setting [6]) and in data set [4] was at least 80% in each case.
